# Assay results published in publication PMC6915869, “Immunosuppressive effects of a novel potassium channel toxin Ktx-Sp2 from Scorpiops Pocoki” (Cell & Bioscience, 2019).
# Entries after “also recorded” stand apart in the source; their conditions may differ. Bridge positions count the residues as written; N and C are the ends. Peptide text beside a SMILES is read from it.
# Assays:
# Type in all cases: cell-based
# mKv1.3 = biological target: T1, mKv1.3 (Mus musculus, UniProt P16390); assay: Whole-cell patch-clamp, exogenous Kv1.3 in HEK293T cells
# T1 construct: expressed in transfected cells; host or cells: HEK293T, vector pIRES2-EGFP (bicistronic, EGFP not fused)
# T1 sequence (P16390 whole entry, the tested form may be a part): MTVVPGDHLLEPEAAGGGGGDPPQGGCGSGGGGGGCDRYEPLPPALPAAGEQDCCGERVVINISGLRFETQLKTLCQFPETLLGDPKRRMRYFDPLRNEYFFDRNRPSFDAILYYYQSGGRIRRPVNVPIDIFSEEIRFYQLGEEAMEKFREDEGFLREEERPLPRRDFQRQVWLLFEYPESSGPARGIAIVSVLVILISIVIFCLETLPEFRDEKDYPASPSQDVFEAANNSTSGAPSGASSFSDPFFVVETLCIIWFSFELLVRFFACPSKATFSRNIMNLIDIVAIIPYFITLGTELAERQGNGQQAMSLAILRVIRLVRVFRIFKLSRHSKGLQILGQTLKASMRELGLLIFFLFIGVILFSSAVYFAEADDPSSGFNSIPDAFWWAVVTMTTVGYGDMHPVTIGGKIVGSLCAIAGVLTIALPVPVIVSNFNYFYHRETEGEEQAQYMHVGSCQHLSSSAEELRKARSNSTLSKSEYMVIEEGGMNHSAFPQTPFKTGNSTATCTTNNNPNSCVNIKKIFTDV
# Protocol: (§1) Mouse spinal columns were removed and placed in ice cold HBSS, then laminectomies were performed and bilateral DRG were dissected out. After removal of connective tissues, DRG were transferred to a 1 ml Ca^2+/Mg^2+-free HBSS containing 2 μl saturated NaHCO3, 0.35 mg L-cysteine and 20 U papain (Worthington, Lakewood, NJ, USA), and incubated at 37 °C for 10 min. The suspension of DRG was centrifuged, the supernatant was removed, 1 ml Ca^2+/Mg^2+-free HBSS containing 4 mg collagenase type II and 1.25 mg dispase type II (Worthington) was added and incubated at 37 °C for 10 min. After digestion, neurons were pelleted, suspended in neurobasal medium containing 2% B-27 supplement, 1% L-glutamine, 100 U/ml penicillin plus 100 μg/ml streptomycin, and 50 ng/ml nerve growth factor, plated on a 12 mm coverslip coated with poly-L-lysine (10 μg/ml) and cultured under a humidified atmosphere of 5% CO2/95% air at 37 °C for 18–24 h before use. Jurkat E6-1 T cells (ATCC TIB152) and HEK293T cells (ATCC ACS4500) were maintained in RPMI medium 1640 (Invitrogen, Carlsbad, CA, USA) and Dulbecco’s modified Eagle’s medium (DMEM) (Life Technologies,GrandIsland, NY, USA), supplemented with 10% fetal bovine serum (Life Technologies), 100 units/ml penicillin, 100 μg/ml streptomycin, respectively. Cells were cultured in a humidified incubator at 37 °C with 5% CO2. […]
# mNav1.4 = assay: Whole-cell patch-clamp, exogenous Nav1.4 in HEK293T cells; details: 1 μM, +10 mV 100 ms pulse from -60 mV every 10 s
# Protocol: as §1
# mNav1.5 = assay: Whole-cell patch-clamp, exogenous Nav1.5 in HEK293T cells; details: 1 μM, +10 mV 100 ms pulse from -60 mV every 10 s
# Protocol: as §1
# mNav1.7 = assay: Whole-cell patch-clamp, exogenous Nav1.7 in HEK293T cells; details: 1 μM, +10 mV 100 ms pulse from -60 mV every 10 s
# Protocol: as §1
# mKv1.1 = biological target: T2, mKv1.1 (Mus musculus, UniProt P16388); assay: Whole-cell patch-clamp, exogenous Kv1.1 in HEK293T cells
# T2 construct: expressed in transfected cells; host or cells: HEK293T, vector pIRES2-EGFP (bicistronic, EGFP not fused)
# T2 sequence (P16388 whole entry, the tested form may be a part): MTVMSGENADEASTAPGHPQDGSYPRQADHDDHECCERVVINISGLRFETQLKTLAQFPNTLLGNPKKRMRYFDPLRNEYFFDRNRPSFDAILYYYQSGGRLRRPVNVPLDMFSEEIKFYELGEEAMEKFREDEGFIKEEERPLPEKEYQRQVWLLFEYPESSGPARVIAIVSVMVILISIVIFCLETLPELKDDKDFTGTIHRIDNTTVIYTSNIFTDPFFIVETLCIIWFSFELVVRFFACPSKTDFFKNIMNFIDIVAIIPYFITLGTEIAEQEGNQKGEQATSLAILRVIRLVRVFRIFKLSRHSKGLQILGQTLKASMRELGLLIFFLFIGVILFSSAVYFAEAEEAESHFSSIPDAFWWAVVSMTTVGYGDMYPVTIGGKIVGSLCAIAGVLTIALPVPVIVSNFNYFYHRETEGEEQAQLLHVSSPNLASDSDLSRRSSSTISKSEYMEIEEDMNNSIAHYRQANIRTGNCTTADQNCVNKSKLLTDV
# Protocol: (§2) Mouse spinal columns were removed and placed in ice cold HBSS, then laminectomies were performed and bilateral DRG were dissected out. After removal of connective tissues, DRG were transferred to a 1 ml Ca^2+/Mg^2+-free HBSS containing 2 μl saturated NaHCO3, 0.35 mg L-cysteine and 20 U papain (Worthington, Lakewood, NJ, USA), and incubated at 37 °C for 10 min. The suspension of DRG was centrifuged, the supernatant was removed, 1 ml Ca^2+/Mg^2+-free HBSS containing 4 mg collagenase type II and 1.25 mg dispase type II (Worthington) was added and incubated at 37 °C for 10 min. After digestion, neurons were pelleted, suspended in neurobasal medium containing 2% B-27 supplement, 1% L-glutamine, 100 U/ml penicillin plus 100 μg/ml streptomycin, and 50 ng/ml nerve growth factor, plated on a 12 mm coverslip coated with poly-L-lysine (10 μg/ml) and cultured under a humidified atmosphere of 5% CO2/95% air at 37 °C for 18–24 h before use. Jurkat E6-1 T cells (ATCC TIB152) and HEK293T cells (ATCC ACS4500) were maintained in RPMI medium 1640 (Invitrogen, Carlsbad, CA, USA) and Dulbecco’s modified Eagle’s medium (DMEM) (Life Technologies,GrandIsland, NY, USA), supplemented with 10% fetal bovine serum (Life Technologies), 100 units/ml penicillin, 100 μg/ml streptomycin, respectively. Cells were cultured in a humidified incubator at 37 °C with 5% CO2. The cDNAs encoding mKv1.1, mKv1.2, mKv1.3, mNav1.4, mNav1.5 and mNav1.7 were subcloned into the XhoI/BamHI sites of a bicistronic vector, pIRES2-EGFP (Clontech, USA), then transiently transfected into HEK293-T cells using Lipofectamine 2000 (Invitrogen) for electrophysiological experiments.
# Whole-cell patch-clamp recordings were performed using an EPC 9 amplifier (HEKA Elektronik, Lambrecht/Pfalz, Germany) at room temperature (22–24 °C). Pipettes pulled from borosilicate glass (BF 150-86-10; Sutter Instrument Company, Novato, CA, USA) had resistances of 2–4 MΩ when filled with the internal solution. […]
# [1] = biological target: T3, endogenous Kv1.3 expressed by human Jurkat T cells (Homo sapiens, UniProt P22001); assay: Whole-cell patch-clamp, endogenous Kv1.3 in Jurkat T cells
# T3 construct: endogenous Kv1.3 expressed by human Jurkat T cells; host or cells: Jurkat E6-1 T cells
# T3 sequence (P22001 whole entry): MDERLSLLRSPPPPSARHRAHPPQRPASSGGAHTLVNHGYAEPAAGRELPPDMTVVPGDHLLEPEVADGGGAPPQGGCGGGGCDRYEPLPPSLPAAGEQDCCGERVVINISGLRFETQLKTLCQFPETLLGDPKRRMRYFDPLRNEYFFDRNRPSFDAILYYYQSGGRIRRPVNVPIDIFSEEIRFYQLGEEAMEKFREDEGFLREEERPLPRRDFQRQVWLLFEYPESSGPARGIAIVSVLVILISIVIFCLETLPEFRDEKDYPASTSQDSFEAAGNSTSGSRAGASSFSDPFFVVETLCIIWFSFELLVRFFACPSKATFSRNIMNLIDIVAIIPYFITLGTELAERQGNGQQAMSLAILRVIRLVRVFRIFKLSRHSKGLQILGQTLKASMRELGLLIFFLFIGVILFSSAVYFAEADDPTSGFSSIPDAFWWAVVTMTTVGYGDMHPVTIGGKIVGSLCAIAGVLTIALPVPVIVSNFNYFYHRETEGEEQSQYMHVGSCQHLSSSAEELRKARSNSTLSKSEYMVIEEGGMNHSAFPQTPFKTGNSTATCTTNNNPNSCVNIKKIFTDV
# Protocol: as §2
# Whole-cell patch-clamp recordings were performed using an EPC 9 amplifier (HEKA Elektronik, Lambrecht/Pfalz, Germany) at room temperature (22–24 °C). Pipettes pulled from borosilicate glass (BF 150-86-10; Sutter Instrument Company, Novato, CA, USA) had resistances of 2–4 MΩ when filled with the internal solution. The internal pipette solution for recording Kv currents contained: KCl 140 mM, MgCl2 1 mM, EGTA 1 mM, Na2ATP 3 mM, HEPES 10 mM (pH 7.3 with KOH); for recording Na currents contained: CsCl 100 mM, CsF 40 mM, MgCl2 2 mM, HEPES 10 mM, EGTA 10 mM, D-Glucose 10 mM, Na2ATP 3 mM (pH 7.3 with CsOH). The external solution for recording Kv currents contained: KCl 5 mM, NaCl 140 mM, HEPES 10 mM, CaCl2 2 mM, MgCl2 1 mM, D-Glucose 10 mM (pH 7.4 with NaOH); for recording Na currents contained: NaCl 132 mM, KCl 5.4 mM, CaCl2 1.8 mM, MgCl2 0.8 mM, HEPES 10 mM, D-Glucose 5 mM (pH 7.4 with NaOH). Kv currents were elicited by + 50 mV, 400 ms depolarizing pulse from the holding potential of − 60 mV every 20 s, and Na currents were elicited by + 10 mV, 100 ms depolarizing pulse from the holding potential of − 60 mV every 10 s. […]
smiles,measurement,setting,value
"CSCC[C@@H]1NC(=O)[C@@H]2CSSC[C@H](NC(=O)[C@H](CCCCN)NC(=O)[C@H](C)NC(=O)CNC(=O)[C@H](Cc3c[nH]cn3)NC(=O)[C@H](CC(C)C)NC(=O)[C@@H]3CCCN3C(=O)[C@@H](N)CO)C(=O)N[C@@H](CO)C(=O)N[C@@H](CO)C(=O)N[C@@H](CO)C(=O)N[C@@H](CC(N)=O)C(=O)N[C@@H](CCC(N)=O)C(=O)N[C@H]3CSSC[C@H](NC(=O)[C@H](CCCNC(=N)N)NC(=O)CNC(=O)[C@H](CC(N)=O)NC1=O)C(=O)N[C@@H](CCCNC(=N)N)C(=O)N[C@H](C(=O)N[C@@H](Cc1ccc(O)cc1)C(=O)NCC(=O)O)CSSC[C@H](NC(=O)[C@@H]1CCCN1C(=O)[C@H](CCCNC(=N)N)NC(=O)[C@H]([C@@H](C)O)NC3=O)C(=O)N[C@@H](CCCNC(=N)N)C(=O)N[C@@H](Cc1ccc(O)cc1)C(=O)NCC(=O)NCC(=O)NCC(=O)N[C@@H]([C@@H](C)O)C(=O)N[C@@H](Cc1c[nH]cn1)C(=O)NCC(=O)N[C@@H](CCCCN)C(=O)N2 [Ktx-Sp2] (H-SPLHGAKCSSSNQCTRPCRYGGGTHGKCMNGRCRCYG-OH; disulfide 8-28, 14-33, 18-35 (inferred); N-terminus and C-terminus assumed)",IC50,"mKv1.3; +50 mV 400 ms pulse from -60 mV every 20 s, room temperature (22–24 °C), mean ± SEM, n = 8, read-out: IC50 for mKv1.3-mediated currents",14.7 ± 1.98 nM
same,blocking of Kv1.3 (in words),mKv1.3; exogenous channel,the blocking activity for Kv1.3 was relatively high; also recorded: the blocking activity on Kv1.3 channel is the strongest
same,effect on Nav1.4,mNav1.4,almost had no effect
same,effect on Nav1.5,mNav1.5,almost had no effect
same,effect on Nav1.7,mNav1.7,almost had no effect
same,IC50,"mKv1.1; +50 mV 400 ms pulse from -60 mV every 20 s, room temperature (22–24 °C), mean ± SEM",485 ± 25.5 nM
same,blocking activity on Kv1.3 relative to Kv1.1 (Discussion),mKv1.1; Discussion section,33 times
same,blocking of Kv1.1 (in words),mKv1.1; exogenous channel,effectively block
same,blocking of endogenous Kv1.3 in Jurkat T cells (in words),[1],effectively block endogenous Kv1.3; also recorded: equivalent to the exogenous expression Kv1.3 on the HEK293T cell membrane
same,reduction of Kv1.3 current,"[1]; 30 nM, bath application, n = 5, +50 mV 400 ms pulse from -60 mV, almost zero cytosolic Ca^2+",about 50%
same,IC50,"[1]; +50 mV 400 ms pulse from -60 mV, almost zero cytosolic Ca^2+, currents normalized to control, Hill equation, read-out: IC50 for Kv1.3 current in Jurkat T cells",29.1 ± 1.12 nM
same,reversibility of suppressive effect on Kv1.3 current after washout,"[1]; bath application, washout",partially reversible after washout
